Patent publication US7183075B2, “Purified and isolated potassium-chloride cotransporter nucleic acids and polypeptides and therapeutic and screening methods using same” (Vanderbilt University, priority 2000, dated 2007)
Read-outs that look alike come from different tables or passages of the source.

Target: T1, mKCC4 (Mus musculus, UniProt Q9WVL3)
T1 construct: a full-length mKCC4 cDNA was used as a standard in the Xenopus expression vector pGEMHE; expressed in transfected cells; host or cells: Xenopus laevis oocytes injected with cRNA (pGEMHE, T7 transcript)
T1 sequence (Q9WVL3 1-1083 L71X/L155X/L467X/L586X/L639X/L1023X): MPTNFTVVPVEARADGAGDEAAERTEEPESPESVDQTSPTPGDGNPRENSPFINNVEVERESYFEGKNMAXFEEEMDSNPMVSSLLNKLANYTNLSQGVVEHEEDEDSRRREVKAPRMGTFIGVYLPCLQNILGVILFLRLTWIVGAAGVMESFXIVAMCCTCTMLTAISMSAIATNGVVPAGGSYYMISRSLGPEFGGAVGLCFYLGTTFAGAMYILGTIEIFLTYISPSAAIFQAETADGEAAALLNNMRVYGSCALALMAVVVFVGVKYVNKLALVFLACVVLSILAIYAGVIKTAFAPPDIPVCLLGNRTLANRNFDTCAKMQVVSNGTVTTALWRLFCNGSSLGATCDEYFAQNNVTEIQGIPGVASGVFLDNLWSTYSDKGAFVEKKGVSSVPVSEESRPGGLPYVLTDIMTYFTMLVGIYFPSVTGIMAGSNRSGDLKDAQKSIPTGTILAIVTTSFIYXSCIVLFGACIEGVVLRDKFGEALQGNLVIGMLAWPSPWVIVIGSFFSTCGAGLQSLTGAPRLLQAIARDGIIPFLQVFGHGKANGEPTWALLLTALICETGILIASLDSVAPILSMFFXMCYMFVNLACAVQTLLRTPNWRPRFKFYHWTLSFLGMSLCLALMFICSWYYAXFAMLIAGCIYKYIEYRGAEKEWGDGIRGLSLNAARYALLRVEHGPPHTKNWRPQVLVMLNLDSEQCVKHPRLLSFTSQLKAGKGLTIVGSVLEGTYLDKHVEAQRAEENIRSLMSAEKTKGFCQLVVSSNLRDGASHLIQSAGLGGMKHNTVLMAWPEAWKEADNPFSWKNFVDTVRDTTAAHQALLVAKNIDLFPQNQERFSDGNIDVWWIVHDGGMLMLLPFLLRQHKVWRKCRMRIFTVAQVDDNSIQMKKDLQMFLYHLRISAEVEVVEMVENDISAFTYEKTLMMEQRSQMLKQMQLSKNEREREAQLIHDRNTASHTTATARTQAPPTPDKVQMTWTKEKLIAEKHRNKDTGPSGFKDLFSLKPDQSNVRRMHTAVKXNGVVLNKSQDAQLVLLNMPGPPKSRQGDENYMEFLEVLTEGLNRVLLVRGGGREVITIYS
Test: 86Rb+ uptake (K+-Cl- cotransport) in Xenopus oocytes injected with mKCC4 cRNA
Type: cell-based
Details: for KCC4 function remaining: 100 μM DIDS; for relative KCC4 activity: 2 mM diuretic; for effect on activation of KCC4 by cell swelling: calyculin A 100 nM, okadaic acid 1 nM, cypermethrin 100 pM
Method: Oocytes were surgically collected from anesthetized female Xenopus adults under 0.17% tricaine and incubated for 1 hour with vigorous shaking in frog Ringer ND96 (96 mM sodium chloride, 2 mM potassium chloride, 1.8 mM calcium chloride, 1.0 mM magnesium chloride, and 5 mM Hepes/Tris, pH 7.4) in the presence of 2 mg/ml collagenase B. Oocytes were then washed four times in ND96, manually defolliculated, and incubated overnight in ND96 at 18° C. On the next day, defolliculated stage V–VI oocytes were injected with 50 nl of water or a solution containing cRNA at a concentration of 0.25–0.5 μg/μl (25 ng/oocyte). Oocytes were incubated at 17–18° C. in ND96 (96 mM sodium chloride, 2 mM potassium chloride, 1.8 mM calcium chloride, 1.0 mM magnesium chloride, and 5 mM Hepes/Tris, pH 7.4), supplemented with 2.5 mM sodium pyruvate and 5 mg/100 ml gentamicin, for 3–4 days. The incubation medium was changed every 24 hours. On the day of the experiment, oocytes were switched to Cl^−-free ND96 (96 mM Na^+ Na^+ isethionate, 2 mM K^+ gluconate, 6 mM Ca^2+ gluconate, 1 mM Mg^2+ gluconate, 5 mM Hepes, 2.5 mM sodium pyruvate, 5 mg/100 ml gentamicin, pH 7.4) for 2 hours prior to the uptake assay.
For functional expression and in vitro translation, a full-length mKCC4 cDNA was used as a standard in the Xenopus expression vector pGEMHE (Liman et al. (1992) Neuron 9:861–871). The resulting construct contains nucleotides 55–3812 of mKCC4 (SEQ ID NO:13). For functional comparison with mKCC4, a full-length rabbit KCC1 cDNA was subcloned into pGEMHE. […] […] Transcription product integrity was confirmed on agarose gels, and concentration was determined by absorbance reading at 260 nm (DU 640 available from Beckman of Fullerton, Calif.).
K^+—Cl^− cotransport was assessed by measuring tracer ^86Rb^+ uptake (NEN® Life Science Products of Boston, Mass.) in experimental groups of at least 15 oocytes. […] All uptake solutions also contained 1.8 mM CaCl2, 1 mM MgCl2, 5 mM Hepes, pH 7.4, and were supplemented with 1 mM ouabain and […] ^86Rb^+. Isotonic conditions were generated by supplementing the same solutions with 3.5 g/100 ml sucrose to reach isosmolar conditions for oocytes (˜210 mOsm/kg). Ouabain was added to prevent ^86Rb^+ uptake via the Na^+—K^+-ATPase. The absence of extracellular Na^+ and the hypotonicity of the uptake medium prevented ^86Rb^+ uptake via the endogenous Na^+—K^+-2Cl^− cotransporter that is present in oocytes (Gamba et al. (1994) J Biol Chem 269:17713–17722).
All uptake assays were performed at 32° C. At the end of the uptake period, oocytes were washed five times in ice-cold uptake solution without isotope to remove extracellular fluid tracer. Oocytes were dissolved in 10% SDS, and tracer activity was determined for each oocyte by β-scintillation counting.
To determine the ion transport kinetics of KCC4 and KCC1, ^86Rb^+ uptake experiments were performed in variable concentrations of K^+ and Cl^−. […]

[1] = KCC4, counterion fixed at 50 mM, hypotonic
[2] = KCC4, counterion fixed at 50 mM, hypotonic, read-out: calculated apparent Km for extracellular ion concentration
[3] = 2 mM extracellular K+, hypotonic
[4] = 50 mM extracellular K+, hypotonic

[Ba+2].[Cl-].[Cl-] [BaCl2]
KCC4-induced influx, % of uptake in control oocytes (10 mM BaCl2 in hypotonic uptake medium): 58±4.3%

Cl [Chloride]
Hill coefficient (KCC4): 1.06±0.3 | calculated apparent Vmax for extracellular ion concentration [1]: 41,440±4,174 pmol×oocyte^−1×hour^−1 | Km [2]: 16.1 ± 4.2 mM | Km (KCC4, read-out: Chloride Km): 15.3 mM

O=S(=O)(O)c1cc(N=C=S)ccc1C=Cc1ccc(N=C=S)cc1S(=O)(=O)O [DIDS]
KCC4 function remaining [3]: 65±10% | KCC4 function remaining [4]: 13±4%

CCCCC1(C2CCCC2)Cc2cc(OCC(=O)O)c(Cl)c(Cl)c2C1=O (stereo not drawn) [DIOA]
effect on KCC4-induced 86Rb+ uptake (100 μM DIOA, hypotonic): inhibition

CCN1C(=O)C=CC1=O [NEM, N-ethylmaleimide]
reduction of KCC4-induced 86Rb+ uptake (1 mM NEM, hypotonic): 68% | fold activation of KCC4 (1 mM NEM, isotonic): 5 fold | 86Rb+ uptake in NEM-treated group (KCC4, 1 mM NEM, isotonic): 1062±70 pmol×oocyte^−1×hour^−1

[K+] [Potassium]
Hill coefficient (KCC4): 1.08±0.2 | calculated apparent Vmax for extracellular ion concentration [1]: 32,370±2,115 pmol×oocyte^−1×hour^−1 | Km [2]: 17.5 ± 2.7 mM | Km (KCC4, read-out: Potassium Km): 17.5 mM

CCCCNc1cc(C(=O)O)cc(S(N)(=O)=O)c1Oc1ccccc1 [bumetanide]
relative KCC4 activity [3]: 90±4% | relative KCC4 activity [4]: 17±4% | IC50 (KCC4, 10 mM extracellular K+, read-out: apparent half-maximal inhibition (K=0.5) of Cl−-dependent 86Rb+ uptake): ~900 µM

COC[C@@H]([C@H](O)[C@H](O)C(=O)NCC[C@H](C)c1nc(/C=C/C[C@@H]2O[C@]3(C[C@@H](O)[C@@H]2C)O[C@H]([C@H](C[C@H](O)[C@H](C)[C@H](O)[C@H](C)/C=C(C)/C(C)=C/C=C/C(C)=C\C#N)OC)[C@H](OP(=O)(O)O)C3(C)C)co1)N(C)C [calyculin A]
effect on activation of KCC4 by cell swelling (hypotonic): completely prevents the activation

CC1(C)C(C=C(Cl)Cl)C1C(=O)OC(C#N)c1cccc(Oc2ccccc2)c1 (stereo not drawn) [cypermethrin]
effect on activation of KCC4 by cell swelling (hypotonic): neither okadaic acid, nor cypermethrin prevented this activation

C=C1[C@@H](O)[C@@H]2O[C@]3(CC[C@H](/C=C/[C@@H](C)[C@@H]4CC(C)=C[C@@]5(O[C@H](C[C@@](C)(O)C(=O)O)CC[C@H]5O)O4)O3)CC[C@H]2O[C@@H]1[C@@H](O)C[C@H](C)[C@H]1O[C@@]2(CCCCO2)CC[C@H]1C [okadaic acid]
effect on activation of KCC4 by cell swelling (hypotonic): neither okadaic acid, nor cypermethrin prevented this activation

NS(=O)(=O)c1cc2c(cc1Cl)NC(C(Cl)Cl)NS2(=O)=O (stereo not drawn) [trichlormethiazide]
relative KCC4 activity [3]: 79±3% | relative KCC4 activity [4]: 57±9%

HgCl2 [Hg—Cl2]
response of KCC4 to mercury (50 μM HgCl2, hypotonic): sensitive
